US8937063B2 (Trustees of Tufts College, priority 2010, dated 2015)

Tests used:
mice = experiment: Doppler capillary blood flow (flush proxy) in mice; type: in vivo; settings: Doppler capillary blood flow measurements
[1] = tested on: high fat+fructose (HF/HS) diet hamsters; experiment: 18-day oral dosing lipid study in HF/HS hamsters; type: in vivo, male Golden Syrian hamsters
Procedure: We examined the effects of diet modulation on the lipid profile of male Syrian Golden hamsters. Hamsters were ordered from Charles River Labs (Wilmington, Mass.), and requested to be 111-120 g in weight (correspondingly 56-61 days old). Hamsters were kept in cages of 4-5 per cage, and maintained on a standard light cycle of 12 hours on/12 hours off. All diets were obtained from Dyets, Inc. (Bethlehem, Pa.). “Normal Diet” was a standard rodent chow, catalog #5001, produced into pellets. Water and this standard chow diet were available to this group of hamsters ad libitum. Food was added to cages as needed, but no less frequently than twice per week. “High Fat Diet” was the same standard rodent chow supplemented with the following: 11.5% corn oil, 11.5% coconut oil, 0.5% cholesterol, and 0.25% deoxycholate. This is also available directly from Dyets, Inc., as catalog #611201. Both diets were ordered in 10 kg batches and stored at 4° C. for durations of the experiments (4-8 weeks), and at −20° C. for longer storage (up to six months). Water and this high fat diet were available to this group of hamsters ad libitum. The “High Fat+Fructose” group was fed the same fat-supplemented chow as the “high fat diet” group (#611201), but water was supplemented with fructose to a final concentration of 10%. Fructose was supplied from Now Foods (catalog #6931) and distributed by Lucky Vitamin (catalog #WB48432). Fructose water was prepared by adding 400 g of fructose to 4 L of water and stirring at room temperature until dissolved. Fructose water was stored at 4° C. until use. When provided to hamsters, fructose water was kept in a water bottle in the hamster cages at room temperature, exactly as standard water was. Fructose water and high fat chow were provided to this group of hamsters ad libitum. All animals remained on their respective diets for 21 days.
To begin this experiment, hamsters were randomly assigned to groups defined by the diet modifications above. After a fixed time, blood was collected from hamsters (N=3-4) to determine the lipid contents of the plasma. Because of limitations in the ability to adequately collect blood from hamsters, all blood samples were obtained via a terminal cardiac puncture preceded by asphyxiation with carbon dioxide. Blood (approximately 2 mL volume) was collected with a 22 G needle into a 5 mL syringe and transferred to a K2EDTA tube. The samples were kept on ice until centrifugation (14,000 rpm for 10 minutes at 4° C.) to separate plasma. Plasma was then aliquoted to tubes for storage at −80° C. until analysis.
Lipid parameters were determined using commercially available kits from Wako USA (Richmond, Va.) according to manufacturer's directions.
Male Golden Syrian hamsters were purchased from Charles River Labs (111-120 g, 56-61 days) and acclimated to a high fat+fructose (herein, referred to as “HF/HS”) diet as described above for two weeks. Hamsters were assigned into cohorts by body weight after two weeks' acclimation to the diet. […] Hamsters were dosed once per day for a total of 18 days. All animals remained on the above-described HF/HS diet throughout the dosing period. Dosing solutions for each cohort were prepared for 7 days at a time, although enough was prepared to last for 8 days. Each solution was stored at room temperature between administrations. Cohorts were defined according to Table 2 below.

[2] = Storage stability of ARI-001 at 50° C., LC-MS; type: physicochemical; settings: unregulated humidity
Procedure: ARI-001 was synthesized as described above. Purity was determined independently before use in experiments by examination via liquid chromatography-mass spectroscopy (LC-MS). A sample of material was dissolved in water/acetonitrile and injected onto a Discovery C-18 reverse phase column. The mobile phase began as 2%:98% acetonitrile:water, which was held for three minutes, after which a linear gradient was started that ran over 6 minutes, increasing the percent of acetonitrile until a final ratio of 98%:2% acetonitrile:water was reached. This final ratio was held for 3 minutes. The major peak was identified as ARI-001.
Stability was determined by storing ARI-001 under 50° C. with no specified humidity requirement. At various time points over the course of 3 months (90 days), a small sample (<5 mg) of ARI-001 was collected for analysis using LC-MS under the same conditions as used for purity determination (vide supra).

[3] = ARI-001 2240 mg/kg oral once daily 18 days, plasma, mean ± SD
[4] = ARI-001 2240 mg/kg vs molar equivalent niacin 1200 mg/kg, 18 days

- purity remaining on storage ([2]; 65 days): 98.9%
- purity remaining on storage ([2]; 90 days): 95.9%
SMILES: O=C(O)c1ccc(CCN2CCOCC2)nc1 [ARI-001]
- capillary vasodilation or hyperemia (a proxy of flush) (mice): no evidence of capillary vasodilation or hyperemia
- TC (total cholesterol) ([1]; ARI-001 2240 mg/kg (9.75 mmol/kg) oral gavage once daily 18 days, plasma, mean ± SD): 343 ± 104 mg/dL
- HDL/TC ([1]; ARI-001 2240 mg/kg oral once daily 18 days, mean ± SD): 0.48 ± 0.07
- FFA (free fatty acids) [1, 3]: 0.75 ± 0.15 mEq/L
- HDL [1, 3]: 186 ± 74 mg/dL
- LDL [1, 3]: 114 ± 33 mg/dL
- TG (triglycerides) [1, 3]: 138 ± 80 mg/dL
- efficacy relative to niacin, LDL cholesterol parameter [1, 4]: at least 1.67 times
- efficacy relative to niacin, total cholesterol parameter [1, 4]: at least 1.54 times
- increase of absolute HDL value compared to vehicle ([1]; ARI-001 2240 mg/kg, 18 days): 33%
- TC (total cholesterol) ([1]; ARI-001 […] (4.88 mmol/kg) oral gavage once daily 18 days, plasma, mean ± SD): 653 ± 194 mg/dL
